Assay [1] deals with T1, Renal Dipeptidase (RDP) (Homo sapiens, UniProt P16444). The settings on record: read-out: RDP inhibition Ki; colon cancer lysate; Table 1. The protocol:
The assay buffer was prepared by mixing 20 mM Tris, pH=8, 10 μM ZnCl2. 1 mM substrate (ε-DNP-L-Lys-D-Amp) stock solution in DMSO was prepared. Inhibitors were diluted from MeOH stock solution in water. […] of lysate was taken in 150 μl of assay buffer and 20 μl of inhibitor was added. The mixture was incubated at room temperature for 30 min. It was then transferred to plate containing 2 μl/well, 1 mM substrate in DMSO. After mixing incubated at 37° C. Florescence was measured at 30 sec intervals. The IC50 values were determined using small Intestine lysate. Ki values were determined for selected compounds using colon cancer lysate.
(§1) The RDP inhibition activity of these compounds was determined using crude lysates prepared from human colon cancers. The results are expressed as the concentration of inhibitor needed to inhibit enzyme activity by 50% (IC50). Human colon cancer extracts were prepared by homogenizing one cm^3 of frozen colon tissue in 10 ml of 20 mM Tris, pH 8.0, 10 μM ZnCl2, 0.1% Triton X 100. The extract was clarified by centrifugation at 13,000×g for 5 minutes at 4° C. and, for each measurement, 20 μl was diluted into 158 μl of 20 mM Tris, pH 8.0, 10 μM ZnCl2. 20 μl of the synthesised compounds were added to each reaction to obtain final concentrations ranging from 0 to 10 μM. The mixtures were incubated at room temperature for 30 minutes to allow enzyme-inhibitor complex formation, and the reactions were initiated by the addition of 2 μl of 1 mM substrate (εDNP-L-Lys-D-Amp).^14 While incubating at 37° C., fluorescence (λex=320 nm, λem=405 nm) measurements were determined at 30 sec intervals and the relative reaction rate was taken as the rate of increase of fluorescence over time.

Assay [2] has as its target T2, Renal Dipeptidase (RDP) (Homo sapiens, UniProt P16444).
T2 construct: from tissue; host or cells: small intestine lysate
T2 sequence (P16444 17-385): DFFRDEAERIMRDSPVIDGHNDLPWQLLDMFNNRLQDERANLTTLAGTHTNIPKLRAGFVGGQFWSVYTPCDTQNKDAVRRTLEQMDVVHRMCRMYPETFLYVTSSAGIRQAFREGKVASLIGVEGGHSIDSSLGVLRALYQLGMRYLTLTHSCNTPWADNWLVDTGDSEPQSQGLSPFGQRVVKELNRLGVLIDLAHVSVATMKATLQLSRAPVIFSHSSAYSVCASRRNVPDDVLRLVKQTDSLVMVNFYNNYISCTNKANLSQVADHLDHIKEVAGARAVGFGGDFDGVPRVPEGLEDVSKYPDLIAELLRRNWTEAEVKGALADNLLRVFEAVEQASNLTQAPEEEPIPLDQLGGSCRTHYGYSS
Briefly: RDP inhibition assay (IC50), small intestine lysate, fluorogenic substrate ε-DNP-L-Lys-D-Amp. It counts as biochemical. As to the method:
Inhibitors were diluted from MeOH stock solution in water. […] After mixing incubated at 37° C. Florescence was measured at 30 sec intervals. The IC50 values were determined using small Intestine lysate.

Assay [3] addresses T1, Renal Dipeptidase (RDP). The settings on record: for pIC50: read-out: RDP inhibition activity IC50, colon cancer lysate, Table 3; for RDP inhibitor potency in words / activity of Z isomers relative to their E counterparts (9, 11 and 13): human colon cancer lysate, numbering of Table 3. As to the method: as §1

The text below walks through data of US7785564B2, “Design and synthesis of renal dipeptidase inhibitors” (The Johns Hopkins University, priority 2002, dated 2010).

pIC50, pKi: −log10 of the molar value. Like-named read-outs stand apart in the source and are kept apart here.

Regarding `NC(CC1CCCCC1)P(=O)(O)C/C(=C/c1ccc(F)cc1)C(=O)O` (centres unmarked) [compound 9], at Renal Dipeptidase (RDP) [1], the pKi – broadly, the Ki on a negative log10 scale, so that one unit is a factor of ten – is 9.14. Also, the values for the pIC50 against Renal Dipeptidase (RDP) [2] (Table 1) and at Renal Dipeptidase (RDP) [3] were 7.82 and 6.52, respectively.

With `NC(CC1CCCCC1)P(=O)(O)C/C(=C\c1ccc(F)cc1)C(=O)O` (centres unmarked) [compound 8], on Renal Dipeptidase (RDP) [1], the pKi is 9.22. On Renal Dipeptidase (RDP) [2] (Table 1), the pIC50 (commonly the negative decadic logarithm of the IC50, by convention in mol/L) is 8.30. Besides, at Renal Dipeptidase (RDP) [3], the “RDP inhibitor potency in words” value is “potent RDP inhibitors”; the “activity of Z isomers relative to their E counterparts (9, 11 and 13)” value is “significantly more active”; the negative-log IC50 (pIC50) is 8.26.

For `NC(CC1CCCCC1)P(=O)(O)CC(=Cc1ccc(I)cc1)C(=O)O` (mixture of isomers) [compound 14], the pKi on Renal Dipeptidase (RDP) [1] was 8.52. The molecule also had a pIC50 on Renal Dipeptidase (RDP) [2] (Table 1) of 7.35.

For `NC(CC1CCCCC1)P(=O)(O)CC(=Cc1ccc(I)cc1)C(=O)O` (mixture of isomers) [compound 15], the pKi on Renal Dipeptidase (RDP) [1] is 8.00. Also, the pIC50 against Renal Dipeptidase (RDP) [2] (Table 1) is 6.60. For the same molecule, at Renal Dipeptidase (RDP) [3], the “RDP inhibitor potency in words” value was “far less active” and the negative logarithm of the IC50 (pIC50) is 7.35.

For the molecule `CCN(CC)c1ccc(/C=C(\CP(=O)(O)C(N)CC2CCCCC2)C(=O)O)cc1` (centres unmarked) [compound 26], the negative-log IC50 (pIC50) against Renal Dipeptidase (RDP) [2] (Table 2) is 7.15.

Molecule `NC(CC1CCCCC1)P(=O)(O)C/C(=C\c1ccc(C(F)(F)F)cc1)C(=O)O` (centres unmarked) [compound 18] gave a pIC50 against Renal Dipeptidase (RDP) [2] (Table 2) of 8.00.

For `NC(CC1CCCCC1)P(=O)(O)C/C(=C\c1ccc(Br)cc1)C(=O)O` (centres unmarked) [compound 10], the pKi on Renal Dipeptidase (RDP) [1] was 9.14. The molecule also gave a pIC50 against Renal Dipeptidase (RDP) [2] (Table 1) of 8.22. On Renal Dipeptidase (RDP) [3], the “RDP inhibitor potency in words” value is listed as “potent RDP inhibitors”; the “activity of Z isomers relative to their E counterparts (9, 11 and 13)” value was “significantly more active”; the pIC50 is 8.10.

On to `NC(CC1CCCCC1)P(=O)(O)C/C(=C/c1ccc(C(F)(F)F)cc1)C(=O)O` (centres unmarked) [compound 19], for which, on Renal Dipeptidase (RDP) [2] (Table 2), the negative logarithm of the IC50 (pIC50) was 6.70.

On to `NC(CC1CCCCC1)P(=O)(O)C/C(=C/c1ccc(Br)cc1)C(=O)O` (centres unmarked) [compound 11], for which the negative logarithm of the Ki (pKi) at Renal Dipeptidase (RDP) [1] was 8.62. Further, the figures for the negative-log IC50 (pIC50) on Renal Dipeptidase (RDP) [2] (Table 1) and at Renal Dipeptidase (RDP) [3] were 7.52 and 7.60, respectively.

As to `NC(CC1CCCCC1)P(=O)(O)C/C(=C/c1ccccc1)C(=O)O` (centres unmarked) [compound 7], the negative-log Ki (pKi) at Renal Dipeptidase (RDP) [1] was 8.80. Moreover, the negative-log IC50 (pIC50) against Renal Dipeptidase (RDP) [2] (Table 1) was 7.40.

`CCN(CC)c1ccc(/C=C(/CP(=O)(O)C(N)CC2CCCCC2)C(=O)O)cc1` (centres unmarked) [compound 27] gave a pIC50 on Renal Dipeptidase (RDP) [2] (Table 2) of 6.82.

Turning to `NC(CC1CCCCC1)P(=O)(O)C/C(=C\c1ccccc1)C(=O)O` (centres unmarked) [compound 6], the pKi on Renal Dipeptidase (RDP) [1] is 8.95. For the same molecule, the pIC50 at Renal Dipeptidase (RDP) [2] (Table 1) is 7.55.

As for `NC(CC1CCCCC1)P(=O)(O)C/C(=C\c1ccc(I)cc1)C(=O)O` (centres unmarked) [compound 12], the negative logarithm of the Ki (pKi) on Renal Dipeptidase (RDP) [1] was 9.22. In addition, the pIC50 at Renal Dipeptidase (RDP) [2] (Table 1) was 8.10. Besides, on Renal Dipeptidase (RDP) [3], the “RDP inhibitor potency in words” value is reported as “potent RDP inhibitors”; the “activity of Z isomers relative to their E counterparts (9, 11 and 13)” value is on record as “significantly more active”; the pIC50 was 8.46.

On to `NC(CC1CCCCC1)P(=O)(O)C/C(=C/c1ccc(I)cc1)C(=O)O` (centres unmarked) [compound 13], for which the negative-log Ki (pKi) at Renal Dipeptidase (RDP) [1] is 8.70. In addition, the values for the negative-log IC50 (pIC50) on Renal Dipeptidase (RDP) [2] (Table 1) and on Renal Dipeptidase (RDP) [3] were 7.60 and 7.22, respectively.
